Results: patent US20150143553A1, “Methods And Compositions Comprising A Drosophila Model Of Amyotrophic Lateral Sclerosis” (priority 2013, published 2015)
Structures can show the parent of a compound that is named as a salt.

These compounds were tested on Drosophila larvae expressing wild-type TDP-43 in motor neurons (assay: Drug screen: rescue of lethality caused by wild-type TDP-43 expression in motor neurons (D42 Gal4)). Settings: Wild-type TDP-43; 25 μM; out of 15-20 pupae.
Assay type: in vivo
Description: […] Larvae expressing TDP-43 (wild type or mutant, as shown) are raised on drug containing food.
[…] Larvae expressing TDP-43 (wt or mutant) were raised on drug containing food.
Using a Drosophila model of ALS based on TDP-43 that recapitulates several aspects of the disease pathophysiology (33, 35), a drug screen aimed at identifying FDA approved compounds with neuroprotective potential in vivo were designed (FIG. 37A). […] This phenotype was used to screen for drug candidates with therapeutic potential as determined by their ability to rescue pupal lethality and produce viable adults with extended wings (FIG. 37A). […]
UAS TDP-43 males were crossed with D42-Gal4 female virgins on fly food containing either DMSO or pioglitazone. For DMSO controls, the same volume of DMSO as the corresponding drug concentration was added. Bromophenol blue was added to a final concentration of approximately 0.02% to ensure homogeneity. Crosses were made on drug food with 3 female virgins and 2 males in each vial, and were maintained at 25° C. unless noted. The parents were discarded after 5-7 days then the vials were screened for adult progeny with straight wings from day 14 to day 25. All adults were screened for TDP-43 expression by visualizing the YFP tag. Total number of pupae was counted on day 25. Percent survival was calculated using the formula (total number of straight-winged adults/total number of pupae)×100. All experiments were performed in triplicate.

SMILES	Rescue Effect (out of 15-20 pupae) (drug conc.) [adults]
CN(C)C(=N)N=C(N)N [Metformin]	2

Same assay, conditions: transgene WT2; 30 μM in fly food

SMILES	Preliminary rescue result: adults with normal wings
CCC(=O)O[C@]1(C(=O)SCF)[C@H](C)C[C@H]2[C@@H]3C[C@H](F)C4=CC(=O)C=C[C@]4(C)[C@@]3(F)[C@@H](O)C[C@@]21C [Fluticasone Propionate]	1 Adult Normal Wings Adults
COc1ccc2c(c1)C(=O)N(CCc1ccc(S(=O)(=O)NC(=O)NC3CCCCC3)cc1)C(=O)C2(C)C [Gliquidone]	7 Adult Normal Wings Adults
Oc1c(Cl)cc(Cl)c(Cl)c1Cc1c(O)c(Cl)cc(Cl)c1Cl [Hexachlorophene]	1 Adult Normal Wings Adults
CC(CNC1CCCCC1)OC(=O)c1ccccc1 (stereo not drawn) [Hexylcaine HCl]	6 Adults Normal Wings
CC(C)Cn1cnc2c(N)nc3ccccc3c21 [Imiquimod]	2 Adult Normal Wings Adults
C[C@H](O)C(=O)Nc1c(I)c(C(=O)NC(CO)CO)c(I)c(C(=O)NC(CO)CO)c1I [Iopamidol]	3 Adult Normal Wings Adults
COCC(=O)Nc1c(I)c(C(=O)NCC(O)CO)c(I)c(C(=O)N(C)CC(O)CO)c1I (stereo not drawn) [Iopromide]	1 Adult Normal Wings Adults
O=C(c1ccccc1)c1ccc2n1CCC2C(=O)O (stereo not drawn) [Ketorolac Tromethamine]	2 Adult Normal Wings Adults
CCC(=O)O[C@@](Cc1ccccc1)(c1ccccc1)[C@@H](C)CN(C)C [Levopropoxyphene Napsylate]	2 Adult Normal Wings Adults
N[C@@H](Cc1cc(I)c(Oc2ccc(O)c(I)c2)c(I)c1)C(=O)O [Liothyronine]	3 Adult Normal Wings Adults
C[C@H](CCC(=O)O)[C@H]1CC[C@H]2[C@@H]3CC[C@@H]4C[C@H](O)CC[C@]4(C)[C@H]3CC[C@]12C [Lithocholic Acid]	7 Adult Normal Wings Adults
O=c1cc(-c2ccc(O)c(O)c2)oc2cc(O)cc(O)c12 [Luteolin]	1 Adult Normal Wings Adults
CCC1(c2ccccc2)NC(=O)N(C)C1=O (stereo not drawn) [Mephenytoin]	2/1
CCCNC(C)(C)COC(=O)c1ccccc1 [Meprylcaine HCl]	1 Adult Normal Wings Adults
CC[N+](C)(CC)CCOC(=O)C1c2ccccc2Oc2ccccc21 [Methantheline Bromide]	1 Adult Normal Wings Adults
Cn1cc[nH]c1=S [Methimazole]	1 Adult Normal Wings Adults
C[N+]1(C)[C@@H]2CC[C@H]1C[C@@H](OC(=O)C(CO)c1ccccc1)C2 (stereo partly drawn) [Methylatropine Nitrate]	2 Adult Normal Wings Adults
CC(=O)N[C@@H](CC(C)C)C(=O)O [N-Acetyl-L-Leucine]	1 Adult Normal Wings Adults
CC1(C)NC(=O)N(c2ccc([N+](=O)[O-])c(C(F)(F)F)c2)C1=O [Nilutamide]	11 Adult Normal Wings Adults
CNC(=C[N+](=O)[O-])NCCSCc1csc(CN(C)C)n1 [Nizatidine]	2 Adult Normal Wings Adults
Cc1nccn1CC1CCc2c(c3ccccc3n2C)C1=O (stereo not drawn) [Ondansetron Hcl]	1 Adult Normal Wings Adults

SMILES	Preliminary rescue result: adults with normal wings
C=CCOc1ccccc1OCC(O)CNC(C)C (stereo not drawn) [Oxprenolol Hcl]	1 Adult Normal Wings Adults
COc1ccc(C(=O)c2ccccc2)c(O)c1 [Oxybenzone]	1 Adult Normal Wings Adults
CCCCc1ccc2[nH]c(NC(=O)OC)nc2c1 [Parbendazole]	2/1
CC(C)(C)NC[C@H](O)COc1ccccc1C1CCCC1 [Penbutolol Sulfate]	1 Adult Normal Wings Adults
Nc1ccc(/N=N/c2ccccc2)c(N)n1 [Phenazopyridine Hydrochloride]	1 Adult Normal Wings Adults
COc1cc([C@@H]2c3cc4c(cc3[C@H](O)[C@H]3COC(=O)[C@H]23)OCO4)cc(OC)c1OC [Podophyllotoxin]	8 Adult Normal Wings Adults
COc1cc2nc(N3CCN(C(=O)c4ccco4)CC3)nc(N)c2cc1OC [Prazosin Hydrochloride]	1 Adult Normal Wings Adults
CCOC(=O)O[C@]1(C(=O)COC(=O)CC)CC[C@H]2[C@@H]3CCC4=CC(=O)C=C[C@]4(C)[C@H]3[C@@H](O)C[C@@]21C [Prednicarbate]	2 Adult Normal Wings Adults
OC(CCN1CCCC1)(c1ccccc1)C1CCCCC1 (stereo not drawn) [Procyclidine HCL]	1 Adult Normal Wings Adults
CCCOc1cc(N)ccc1C(=O)OCCN(CC)CC [Propoxycaine Hcl]	1 Adult Normal Wings Adults
CCCc1cc(C(N)=S)ccn1 [Prothionamide]	1 Adult Normal Wings Adults
CNCCCC1c2ccccc2C=Cc2ccccc21 [Protriptyline Hydrochloride]	1 Adult Normal Wings Adults
CCOC(=O)[C@H](CCc1ccccc1)N[C@@H](C)C(=O)N1Cc2ccccc2C[C@H]1C(=O)O [Quinapril Hcl]	2 Adult Normal Wings Adults
COc1ccc2cc([C@@H](C)C(=O)[O-])ccc2c1.[Na+] [R-Naproxen Na Salt]	2 Adult Normal Wings Adults
CCOC(=O)[C@H](CCc1ccccc1)N[C@@H](C)C(=O)N1[C@H](C(=O)O)C[C@@H]2CCC[C@@H]21 [Ramipril]	1 Adult Normal Wings Adults
CCC(=O)[C@@]1(C)[C@H](C)C[C@H]2[C@@H]3CCC4=CC(=O)C=C[C@]4(C)[C@H]3[C@@H](O)C[C@@]21C [Rimexolone]	1 Adult Normal Wing Adults
Cc1nc2n(c(=O)c1CCN1CCC(c3noc4cc(F)ccc34)CC1)CCCC2 [Risperidone]	1 Adult Normal Wing Adults
COc1ccc(C2CNC(=O)C2)cc1OC1CCCC1 (stereo not drawn) [Rolipram]	1 Adult Normal Wings Adults
CN1CCN(c2c(F)cc3c(=O)c(C(=O)O)cn4c3c2SCC4)CC1 [Rufloxacin]	1 Adult Normal Wings Adults
CC1(C)[C@H](C(=O)O)N2C(=O)C[C@H]2S1(=O)=O [Sulbactam]	1 Adult Normal Wings Adults
COc1cnc(NS(=O)(=O)c2ccc(N)cc2)nc1 [Sulfameter]	3 Adult Normal Wings Adults

Same assay, conditions: transgene WT2; 50 μM in fly food

SMILES	Preliminary rescue result: adults with normal wings
CC(C(=O)O)c1cccc(C(=O)c2ccccc2)c1 (stereo not drawn) [Ketoprofen]	1 Adult Normal Wings Adults
COc1ccc2[nH]cc(CCNC(C)=O)c2c1 [Melatonin]	4 Adults Normal Wings
O=S(=O)(O)CCS [Mesna]	4 Adult Normal Wings Adults
CC(=O)Nc1c(I)c(C(=O)N[C@H]2C(O)O[C@H](CO)[C@@H](O)[C@@H]2O)c(I)c(N(C)C(C)=O)c1I (stereo partly drawn) [Metrizamide]	2 Adults Normal Wings
Cc1cc(-c2ccccc2)nnc1NCCN1CCOCC1 [Minaprine Dihydrochloride]	1 Adult Normal Wings Adults
Cc1ccsc1/C=C/C1=NCCCN1C [Morantel Tartrate]	1 Adult Normal Wings Adults
CN(C)C(=O)Oc1cccc([N+](C)(C)C)c1 [Neostigmine Bromide]	5 Adults Straight Wings
O=C1NCCN1c1ncc([N+](=O)[O-])s1 [Niridazole]	3 Adult Normal Wings Adults
C#CCN(C)Cc1ccccc1 [Pargyline Hydrochloride]	1 Adult Normal Wings Adults
CC(N)C(O)c1ccccc1 (stereo not drawn) [Phenylpropanolamine Hydrochloride]	1 Adult: 1 Normal Wing Adults
COc1cc(NC(C)CCCN)c2ncccc2c1 (stereo not drawn) [Primaquine Diphosphate]	1 Adult Normal Wings Adults
CCN1CCC[C@H]1CNC(=O)c1c(O)c(Cl)cc(Cl)c1OC [Raclopride]	2 Adults Normal Wings
CCOc1cc(CC(=O)N[C@@H](CC(C)C)c2ccccc2N2CCCCC2)ccc1C(=O)O [Repaglinide]	1 Adult Normal Wings Adults
CC(NCCc1ccc(O)cc1)C(O)c1ccc(O)cc1 (stereo not drawn) [Ritodrine]	2 Adults Normal Wings
CN[C@@H]1[C@@H](O)[C@@H](O[C@@H]2[C@@H](O)[C@H](O[C@H]3OC(CN)=CC[C@H]3N)[C@@H](N)C[C@H]2N)OC[C@]1(C)O [Sisomicin Sulfate]	1 Adult Normal Wings Adults
Nc1ccc(S(N)(=O)=O)cc1 [Sulfanilamide]	1 Adult Normal Wings Adults
Cc1noc(NS(=O)(=O)c2ccc(N)cc2)c1C [Sulfisoxazole]	1 Adult Normal Wings Adults
